The subject of one data set is PC12 cells. Nature of the data set: neuroprotective action (neurite network formation) in PC12 cells. Particulars: test compound 0.3-3.0 μmol/L, two days, DMEM with 0.5% FCS and 2 ng/mL NGF; observed under a microscope. It counts as cell-based. The protocol: Using PC12 cells, the neuroprotective action of the compound of the present invention was evaluated.
PC12 cells were precultured for one day in a DMEM (Dulbecco's Modified Eagle's Medium) culture solution containing 10% FCS (Fetal Calf Serum) in an incubator at 37° C., 5% CO2, and seeded at 5×10^3/well in a 24 well plate (Falcon) in the same medium. After the cells adhered to the bottom surface, the culture was changed to a DMEM culture solution containing 0.5% FCS and 2 ng/mL of NGF (Wako Pure Chemical Industries, Ltd.). After culturing overnight, the test compound was added at a concentration of 0.3-3.0 μmol/L and the cells were cultured for two more days. Gultalaldehyde was added to the cultured to a final concentration of 2% and the cells were fixed for 1 hr., after which stained with a Diff-Quick (International Reagents Corporation). The cells were washed, dried with air and observed under a microscope.

For the next data set, the system named is rat C6 glioma cells. Description: GDNF production promoting action in rat C6 glioma cells (ELISA of culture supernatant). Format: cell-based. Particulars: Rattus norvegicus, C6 glioma, 48 h; concentration which causes 50% increase of GDNF relative to the control group; cultured 2 days with test compound; GDNF in culture supernatant by ELISA. The protocol:
Using rat C6 glioma cells, the GDNF production promoting action of the compound of the present invention was evaluated.
Rat C6 glioma cells (ATCC) were grown in Dulbecco's Modified Eagle's Medium (DMEM) containing 10% FBS (Fetal Bovine Serum) in a collagen type 1 coated 75 cm^2 culture flask (SUMITOMO BAKELITE Co., Ltd.) until near confluent, detached by trypsin treatment and washed once with DMEM containing 10% FBS.
The cells after washing were diluted with 10% FBS-containing DMEM to a concentration of 5×10^4/mL and seeded at 0.3 mL/well in each well of collagen type 1 coated 48 well culture dish (SUMITOMO BAKELITE Co., Ltd.). After 3 days, the culture in the culture dish was placed in a 1% BSA (bovine serum albumin, Sigma)-containing DMEM medium supplemented with various concentrations of test compound, and further cultured for 2 days. The culture supernatant was recovered and preserved at −80° C. until measurement of GDNF.
The content of GDNF in the culture supernatant was measured by the following ELISA Method.
Anti-GDNF antibody (MAB212, R&D) was diluted with TBS (Tris buffered physiological saline: 25 mmol/L Tris-HCl (pH 8.0), 150 mmol/L NaCl) to 2 μg/mL and dispensed at 0.1 mL/well to each well of a 96-well immunoplate. The 96-well immunoplate was incubated overnight at 4° C. and washed once with TBS containing Tween 20 at 0.05% (hereinafter to be abbreviated as TBST). A blocking solution (TBS containing 1% BSA and 5% sucrose) was added at 0.2 mL/well to each well after washing, and the plate was incubated at room temperature for 1 hr., after which each well was washed twice with TBST. The culture supernatant (0.1 mL) of the aforementioned C6 cells was added to each well after washing and the plate was incubated at room temperature for 3 hrs., after which the wells were washed 5 times with TBST. The 500-fold diluted anti-GDNF antibody (G2791, Promega) was added by 0.1 mL to each well after washing, incubated at room temperature for 2 hrs. and washed 5 times with TBST. A 5000-fold diluted horseradish peroxidase-labeled anti-chicken IgY antibody (G1351, Promega) was added at 0.1 mL/well to each well after washing, incubated at room temperature for 2 hrs. and washed 5 times with TBST. A substrate solution (TMB substrate solution, BIO-RAD) was added at 0.1 mL/well to each well after washing and allowed to develop color at room temperature for 8 min. To stop the reaction, 0.1 mL of 1 mol/L phosphoric acid was added to each well in coloring developing reaction. The absorbance of the reaction solution at 450 nm wavelength was measured.
In the same manner as above except the test compound was not used, the ELISA Method was performed and this was used as a control group.
Using various concentrations of GDNF (Promega), ELISA Method was performed in the same manner as above and standard line was prepared.
From the aforementioned absorbance and standard line, GDNF content in a sample was calculated and the concentration (EC50), which causes 50% increase of GDNF relative to the control group was calculated from the regression line.

Regarding `Cn1ncc(/C=C/C(=O)Nc2ccc(Cn3cnc4ccccc43)cc2)c1-c1ccc(F)cc1` [Example 185, (2E)-N-[4-(1H-Benzimidazol-1-ylmethyl)phenyl]-3-[5-(4-fluorophenyl)-1-methyl-1H-pyrazol-4-yl]acrylamide], the melting point (commonly the temperature of the solid-liquid transition) lay in the range of 243 to 244 °C. For the same compound, the “formation of neurite network” value in the data set with PC12 cells is on record as “promoted formation of neurite network”. For the same compound, the EC50 with rat C6 glioma cells was 300 nM.

Turning to `CN1C(=O)SC(Cc2ccc(NC(=O)/C=C/c3cnn(C)c3-c3ccc(F)cc3)cc2)C1=O` (stereo not drawn) [Example 110, (2E)-3-[5-(4-Fluorophenyl)-1-methyl-1H-pyrazol-4-yl]-N-{4-[(3-methyl-2,4-dioxo-1,3-thiazolidin-5-yl)methyl]phenyl}acrylamide], the melting point fell in the range of 228 to 229 °C. Besides, the “formation of neurite network” value in the data set on PC12 cells is given as “promoted formation of neurite network”. Moreover, the EC50 in the data set with rat C6 glioma cells was 310 nM.

`Cn1ncc(/C=C/C(=O)Nc2ccc(CC3SC(=O)NC3=O)cc2)c1-c1ccc(F)cc1` (stereo not drawn) [Example 60, (2E)-N-{4-[(2,4-Dioxo-1,3-thiazolidin-5-yl)methyl]phenyl}-3-[5-(4-fluorophenyl)-1-methyl-1H-pyrazol-4-yl]acrylamide] showed a melting point of 149 to 150 °C. In the data set with PC12 cells, the “formation of neurite network” value is reported as “promoted formation of neurite network”. In the data set on rat C6 glioma cells, the EC50 was found to be 800 nM.
